In PMC3013619 (Cell host & microbe, 2009):

Target: T1, TgAPT (apicoplast phosphate translocator), TgAPT-N (Toxoplasma gondii, UniProt A7U554)
T1 sequence (A7U554 1-352): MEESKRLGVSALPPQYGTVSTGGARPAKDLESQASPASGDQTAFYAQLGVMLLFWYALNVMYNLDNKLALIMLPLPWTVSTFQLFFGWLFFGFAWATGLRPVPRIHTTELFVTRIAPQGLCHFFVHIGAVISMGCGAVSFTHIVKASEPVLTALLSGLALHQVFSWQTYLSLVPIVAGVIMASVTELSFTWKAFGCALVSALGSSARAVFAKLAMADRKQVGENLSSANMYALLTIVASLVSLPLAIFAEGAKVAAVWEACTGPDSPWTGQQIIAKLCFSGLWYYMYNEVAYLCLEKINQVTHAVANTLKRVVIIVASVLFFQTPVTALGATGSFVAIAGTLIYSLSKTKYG
Test: […]-Pi uptake into proteoliposomes, competitive inhibition
Assay type: biochemical
Conditions: competitive with Pi; apparent; pH 7.6; reconstituted solubilized yeast membranes

Molecule	Kinetic constant ^d / TgAPT [mM]
triose phosphate	1.63 ± 0.26
O=C(O)[C@H](O)COP(=O)(O)O [3-PGA]	1.33 ± 0.49
C=C(OP(=O)(O)O)C(=O)O [PEP]	1.65 ± 0.52
